Source: PubChem BioAssay AID256 (DTP/NCI, 2004)
Values joined by “and” are separate entries in the source; they are usually repeats but may differ in a detail not shown here. Identical values can stand only once. Inconclusive results and toxic doses are left out. How the source made its calls: active means survival T/C of 150% or more; inactive means T/C below 125% in these data.

Test system: CD2F1 mice, L1210 leukemia ip, survival T/C
Assay: NCI In Vivo Anticancer Drug Screen. Data for tumor model L1210 Leukemia (intraperitoneal) in CD2F1 (CDF1) mice
Details: higher = longer survival
Procedure, shortened: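 Ratio T/C, where T is the treated-group value and C the vehicle-dosed control value, from mice implanted with a transplantable tumor.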

[1] = endpoint: mean survival time, dose: 100.0 mg/kg/injection, schedule: Q04DX003 (ip), vehicle: saline with Tween-80
[2] = endpoint: mean survival time, dose: 200.0 mg/kg/injection, schedule: Q04DX003 (ip), vehicle: saline with Tween-80
[3] = endpoint: mean survival time, dose: 400.0 mg/kg/injection, schedule: Q04DX003 (ip), vehicle: saline with Tween-80
[4] = endpoint: mean survival time, dose: 50.0 mg/kg/injection, schedule: Q01DX009 (ip), vehicle: saline with Tween-80
[5] = endpoint: mean survival time, dose: 100.0 mg/kg/injection, schedule: Q01DX009 (ip), vehicle: saline with Tween-80
[6] = endpoint: mean survival time, dose: 200.0 mg/kg/injection, schedule: Q01DX009 (ip), vehicle: saline with Tween-80
[7] = endpoint: mean survival time, dose: 400.0 mg/kg/injection, schedule: Q01DX009 (ip), vehicle: saline with Tween-80
[8] = endpoint: mean survival time, dose: 100.0 mg/kg/injection, schedule: Q01DX001 (ip), vehicle: saline
[9] = endpoint: mean survival time, dose: 200.0 mg/kg/injection, schedule: Q01DX001 (ip), vehicle: saline
[10] = endpoint: mean survival time, dose: 400.0 mg/kg/injection, schedule: Q01DX001 (ip), vehicle: saline
[11] = endpoint: mean survival time, dose: 25.0 mg/kg/injection, schedule: Q04DX002 (ip), vehicle: saline with Tween-80
[12] = endpoint: mean survival time, dose: 100.0 mg/kg/injection, schedule: Q01DX005 (ip), vehicle: water
[13] = endpoint: mean survival time, dose: 50.0 mg/kg/injection, schedule: Q01DX001 (ip), vehicle: saline with Tween-80

Measured: T/C

CCCNC1=C(C)C(=O)C2=C(C1=O)[C@@H](COC(N)=O)[C@]1(O)[C@H]3[C@@H](CN21)N3C (stereo not given in full)
inactive: endpoint: mean survival time, dose: 1.5 mg/kg/injection, schedule: Q01DX001 (ip), vehicle: water 98 % of control and 103 % of control | endpoint: mean survival time, dose: 3.0 mg/kg/injection, schedule: Q01DX001 (ip), vehicle: water 97 % of control and 103 % of control | endpoint: mean survival time, dose: 6.0 mg/kg/injection, schedule: Q01DX001 (ip), vehicle: water 98 % of control and 101 % of control | endpoint: mean survival time, dose: 12.0 mg/kg/injection, schedule: Q01DX001 (ip), vehicle: water 98 % of control and 103 % of control | endpoint: mean survival time, dose: 24.0 mg/kg/injection, schedule: Q01DX001 (ip), vehicle: water 97 % of control and 101 % of control | endpoint: mean survival time, dose: 50.0 mg/kg/injection, schedule: Q01DX001 (ip), vehicle: distilled water + Tween-80 100 % of control | endpoint: mean survival time, dose: 100.0 mg/kg/injection, schedule: Q01DX001 (ip), vehicle: distilled water + Tween-80 108 % of control

CNC(=O)Nc1nc2ccc([N+](=O)[O-])cc2[nH]1
inactive: [1] 109 % of control | [2] 105 % of control | [3] 105 % of control

CSc1nc(NC2OCC(O)C(O)C2O)c(C(C)=O)c(=O)n1C (stereo not given)
inactive: endpoint: median survival time, dose: 12.5 mg/kg/injection, schedule: Q01DX005 (ip), vehicle: saline with Tween-80 97 % of control | endpoint: median survival time, dose: 25.0 mg/kg/injection, schedule: Q01DX005 (ip), vehicle: saline with Tween-80 98 % of control | endpoint: median survival time, dose: 50.0 mg/kg/injection, schedule: Q01DX005 (ip), vehicle: saline with Tween-80 96 % of control | endpoint: median survival time, dose: 100.0 mg/kg/injection, schedule: Q01DX005 (ip), vehicle: saline with Tween-80 89 % of control | endpoint: median survival time, dose: 200.0 mg/kg/injection, schedule: Q01DX005 (ip), vehicle: saline with Tween-80 94 % of control

CC(C)(C)C(=O)CC(O)(C(F)(F)Cl)C(F)(F)Cl
inactive: [4] 111 % of control | [5] 116 % of control and 108 % of control | [6] 92 % of control and 95 % of control | [7] 113 % of control

CCOC(=O)C(Cc1ccc(Cl)cc1)P(=O)(OCC)OCC (stereo not given)
inactive: [8] 106 % of control | [9] 101 % of control | [10] 106 % of control

CCCC(=O)c1c(C)cc(C)cc1C
inactive: endpoint: mean survival time, dose: 100.0 mg/kg/injection, schedule: Q04DX003 (ip), vehicle: other 98 % of control | endpoint: mean survival time, dose: 200.0 mg/kg/injection, schedule: Q04DX003 (ip), vehicle: other 104 % of control | endpoint: mean survival time, dose: 400.0 mg/kg/injection, schedule: Q04DX003 (ip), vehicle: other 98 % of control

c1ccc2c(c1)OC1(CCCCC1)O2
inactive: [1] 100 % of control | [2] 103 % of control | [3] 102 % of control

Cc1sc2cc(N)ccc2[n+]1C
inactive: endpoint: mean survival time, dose: 12.5 mg/kg/injection, schedule: Q04DX002 (ip), vehicle: saline with Tween-80 102 % of control | [11] 98 % of control | endpoint: mean survival time, dose: 50.0 mg/kg/injection, schedule: Q04DX002 (ip), vehicle: saline with Tween-80 95 % of control | endpoint: mean survival time, dose: 100.0 mg/kg/injection, schedule: Q04DX002 (ip), vehicle: saline with Tween-80 98 % of control | endpoint: mean survival time, dose: 200.0 mg/kg/injection, schedule: Q04DX002 (ip), vehicle: saline with Tween-80 109 % of control

CC(=O)OC1C(OC(C)=O)C(OC(C)=O)C2OC(C)(C)OC2C1OC(C)=O (stereo not given)
inactive: endpoint: mean survival time, dose: 100.0 mg/kg/injection, schedule: Q01DX009 (ip), vehicle: Klucel (hydroxypropylcellulose) (HPC) 96 % of control | endpoint: mean survival time, dose: 200.0 mg/kg/injection, schedule: Q01DX009 (ip), vehicle: Klucel (hydroxypropylcellulose) (HPC) 93 % of control | endpoint: mean survival time, dose: 400.0 mg/kg/injection, schedule: Q01DX009 (ip), vehicle: Klucel (hydroxypropylcellulose) (HPC) 100 % of control

Nc1nc(=O)n(C2OC(CO)C(O)C2O)c2nc[nH]c12 (stereo not given)
inactive: endpoint: mean survival time, dose: 6.25 mg/kg/injection, schedule: Q01DX005 (ip), vehicle: water 98 % of control | endpoint: mean survival time, dose: 12.5 mg/kg/injection, schedule: Q01DX005 (ip), vehicle: water 90 % of control | endpoint: mean survival time, dose: 25.0 mg/kg/injection, schedule: Q01DX005 (ip), vehicle: water 88 % of control | endpoint: mean survival time, dose: 50.0 mg/kg/injection, schedule: Q01DX005 (ip), vehicle: water 92 % of control and 93 % of control | [12] 87 % of control and 90 % of control

Cc1cc(C)c(S(=O)O)c(C)c1
inactive: [8] 103 % of control | [9] 103 % of control | [10] 103 % of control

CN(C)c1ccn(C2OC(CO)C(O)C2O)c(=O)n1 (stereo not given)
inactive: [12] 107 % of control | endpoint: mean survival time, dose: 200.0 mg/kg/injection, schedule: Q01DX005 (ip), vehicle: water 103 % of control | endpoint: mean survival time, dose: 400.0 mg/kg/injection, schedule: Q01DX005 (ip), vehicle: water 115 % of control

Cc1ncc(COP(=O)(O)O)c(C=NC(Cc2ccc(O)c(O)c2)C(=O)O)c1O.O.[Cu] (stereo not given)
inactive: endpoint: mean survival time, dose: 12.5 mg/kg/injection, schedule: Q01DX001 (ip), vehicle: saline 100 % of control | endpoint: mean survival time, dose: 25.0 mg/kg/injection, schedule: Q01DX001 (ip), vehicle: saline 93 % of control | endpoint: mean survival time, dose: 50.0 mg/kg/injection, schedule: Q01DX001 (ip), vehicle: saline 86 % of control

NC1=C(Cl)C(=O)C(N)=C(Cl)C1=O
inactive: [1] 101 % of control | [2] 101 % of control

O=C(CC(NC(=O)OCc1ccccc1)c1nn[nH]n1)OCc1ccccc1 (stereo not given)
inactive: [1] 86 % of control | [2] 94 % of control | [3] 91 % of control

c1cc2c(cc1-c1nnc(-c3ccc4c(c3)OCO4)nn1)OCO2
inactive: endpoint: mean survival time, dose: 12.5 mg/kg/injection, schedule: Q01DX001 (ip), vehicle: saline with Tween-80 91 % of control | endpoint: mean survival time, dose: 12.5 mg/kg/injection, schedule: Q01DX009 (ip), vehicle: saline with Tween-80 94 % of control | endpoint: mean survival time, dose: 25.0 mg/kg/injection, schedule: Q01DX001 (ip), vehicle: saline with Tween-80 90 % of control | endpoint: mean survival time, dose: 25.0 mg/kg/injection, schedule: Q01DX009 (ip), vehicle: saline with Tween-80 96 % of control | [13] 95 % of control | [4] 88 % of control

CC(=O)OC1CCC2(C)C(CCC3C2CCC2(C)C3CC3OC(CCC(C)CO)C(C)C32)C1 (stereo not given)
inactive: [5] 95 % of control | [6] 91 % of control | [7] 96 % of control

O=C(COc1ccccc1)NC(=S)Nc1ccc(Cl)c(Cl)c1
inactive: [11] 97 % of control and 105 % of control | [13] 101 % of control | [4] 98 % of control and 102 % of control | endpoint: mean survival time, dose: 50.0 mg/kg/injection, schedule: Q04DX003 (ip), vehicle: saline with Tween-80 98 % of control | endpoint: mean survival time, dose: 100.0 mg/kg/injection, schedule: Q01DX001 (ip), vehicle: saline with Tween-80 101 % of control | [5] 98 % of control and 106 % of control | [1] 96 % of control | endpoint: mean survival time, dose: 200.0 mg/kg/injection, schedule: Q01DX001 (ip), vehicle: saline with Tween-80 95 % of control | [6] 93 % of control and 96 % of control | [2] 98 % of control

COc1ccc(C(CO)=C(c2ccc(OC)cc2)c2ccc(OC)cc2)cc1
inactive: [1] 103 % of control | [2] 94 % of control | [3] 95 % of control

CS(=O)CCO (stereo not given)
inactive: endpoint: mean survival time, dose: 100.0 mg/kg/injection, schedule: Q04DX002 (ip), vehicle: saline 93 % of control | endpoint: mean survival time, dose: 200.0 mg/kg/injection, schedule: Q04DX002 (ip), vehicle: saline 107 % of control | endpoint: mean survival time, dose: 400.0 mg/kg/injection, schedule: Q04DX002 (ip), vehicle: saline 104 % of control

O=C(NC1CCCCC1)OCC#CC#CCOC(=O)NC1CCCCC1
inactive: endpoint: mean survival time, dose: 100.0 mg/kg/injection, schedule: Q04DX003 (ip), vehicle: Klucel (hydroxypropylcellulose) (HPC) 94 % of control | endpoint: mean survival time, dose: 200.0 mg/kg/injection, schedule: Q04DX003 (ip), vehicle: Klucel (hydroxypropylcellulose) (HPC) 96 % of control | endpoint: mean survival time, dose: 400.0 mg/kg/injection, schedule: Q04DX003 (ip), vehicle: Klucel (hydroxypropylcellulose) (HPC) 100 % of control

COS(=O)C(c1ccccc1)C(c1ccccc1)C(O)c1ccccc1 (stereo not given)
inactive: [5] 90 % of control | [6] 90 % of control | [7] 95 % of control

CC(C)OC(N)=O
inactive: [8] 94 % of control | [5] 106 % of control | endpoint: mean survival time, dose: 100.0 mg/kg/injection, schedule: Q04DX003 (ip), vehicle: saline 97 % of control | [9] 102 % of control | [6] 103 % of control | endpoint: mean survival time, dose: 200.0 mg/kg/injection, schedule: Q04DX003 (ip), vehicle: saline 101 % of control | [10] 100 % of control | [7] 105 % of control | endpoint: mean survival time, dose: 400.0 mg/kg/injection, schedule: Q04DX003 (ip), vehicle: saline 100 % of control
